These results are taken from patent US20240238423A9, “TETRAHYDROISOQUINOLINE HETEROBIFUNCTIONAL BCL-XL DEGRADERS” (Treeline Biosciences, Inc., priority 2022, published 2024).

Where two headings read alike, the source gives them in different places. Where only a bound is given, the exact number is not on record here.

This test concerns the target T1, Human BCL-XL protein (N-terminal HiBiT tagged BCL-XL in HT1080 cells) (Homo sapiens, UniProt Q07817).
T1 construct: expressed in transfected cells; host or cells: HT-1080 (ATCC CCL-121), stably transduced with lentivirus pLV-UBC-N-HiBiT-BCL-XL-PGK-puro and selected with puromycin
The test is described as follows: HiBiT based degradation assay. The test is classed as cell-based. The note with it: HT1080 cells expressing HiBiT-BCL-XL; for Ymin (24 h) / Ymin (6 h): BCL-XL degradation normalized with DMSO control; for DC50: BCL-XL degradation. The source says: Human BCL-XL protein coding open reading frame fused with N-terminal HiBiT coding sequence was synthesized from Integrated DNA Technologies (IDT). Next, N-HiBiT-BCL-XL sequence was cloned into pLV-UBC-PGK-Puro, a lentivirus plasmid purchased from Vectorbuilder, to generate pLV-UBC-N-HiBiT-BCL-XL-PGK-puro. Lentiviral particles were generated from Lenti-X™ 293T cells (Clontech) by co-transfection of pLV-UBC-N-HiBiT-BCL-XL-PGK-puro plasmids and lentiviral packaging plasmid mix (Cellecta). HT-1080 [HT1080](ATCC CCL-121) cells were infected with the lentivirus, and HT1080 cells stably integrated with the lentiviral vectors were established by incubation with 1 μg/mL puromycin (Thermofisher).
HT1080 cells expressing N-terminal HiBiT tagged BCL-XL were dispensed into a 384-well plate pre-spotted with compounds at varying concentrations. Three thousand cells were seeded into each well in 40 μL of RPMI 1640 media. […] After incubation, luminescence was read on a PHERAstar FSX Plate Reader (BMG). BCL-XL degradation at each indicated concentration was normalized with the DMSO control. The BCL-XL degradation curves were plotted using a four-parameter logistic model. For compounds displaying hook effects, the curve fitting was performed using the bottom point of the hook curves (i.e., the point of Ymin) as the bottom plateau to calculate EC50.
(In general: The HiBiT peptide binds its large partner to form an active luciferase.)

T1 sequence (Q07817 whole entry): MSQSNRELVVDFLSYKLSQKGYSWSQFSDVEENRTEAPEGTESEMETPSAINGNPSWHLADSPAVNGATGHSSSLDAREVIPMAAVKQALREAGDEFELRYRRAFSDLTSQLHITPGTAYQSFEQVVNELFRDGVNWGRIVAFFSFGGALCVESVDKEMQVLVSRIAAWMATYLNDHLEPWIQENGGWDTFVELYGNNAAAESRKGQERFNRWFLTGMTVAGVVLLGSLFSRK

As to `Cc1c(O[C@H]2CC[C@@H](CCCN3CCN(c4cccc5c(C6CCC(=O)NC6=O)nn(C)c45)CC3)CC2)cccc1-c1ccc(N2CCc3cccc(C(=O)Nc4nc5ccccc5s4)c3C2)nc1C(=O)O` (stereo partly shown) [Compound 147b, 6-(8-(benzo[d]thiazol-2-ylcarbamoyl)-3,4-dihydroisoquinolin-2(1H)-yl)-3-(3-(((1r,4s)-4-(3-(4-(3-(2,6-dioxopiperidin-3-yl)-1-methyl-1H-indazol-7-yl)piperazin-1-yl)propyl)cyclohexyl)oxy)-2-methylphenyl)picolinic acid], the “Ymin (24 h)” value (24 h) is “B (50% ≤ Ymin < 70%)”. Further, where the note is “24 h, read-out: EC50 (24 h)”, the DC50 is less than 100 nM.
In the case of `Cc1cc(OCCCC2CCN(CC(=O)Nc3cccc4c(C5CCC(=O)NC5=O)nn(C)c34)CC2)ccc1-c1ccc(N2CCc3cccc(C(=O)Nc4nc5ccccc5s4)c3C2)nc1C(=O)O` (stereo not shown) [Compound 236, 6-(8-(Benzo[d]thiazol-2-ylcarbamoyl)-3,4-dihydroisoquinolin-2(1H)-yl)-3-(4-(3-(1-(2-((3-(2,6-dioxopiperidin-3-yl)-1-methyl-1H-indazol-7-yl)amino)-2-oxoethyl)piperidin-4-yl)propoxy)-2-methylphenyl)picolinic acid], the “Ymin (6 h)” value (6 h) is listed as “B (50% ≤ Ymin < 70%)”. Further, the “Ymin (24 h)” value (24 h) is recorded as “B (50% ≤ Ymin < 70%)”. Also, the DC50 by setting is: (6 h, read-out: EC50 (6 h)) less than 100 nM; (24 h, read-out: EC50 (24 h)) less than 100 nM.
With `Cc1cc(OCC2CC3(CCN(CC(=O)Nc4ccc5c(C6CCC(=O)NC6=O)nn(C)c5c4)CC3)C2)ccc1-c1ccc(N2CCc3cccc(C(=O)Nc4nc5ccccc5s4)c3C2)nc1C(=O)O` (stereo not shown) [Compound 265, 6-(8-(benzo[d]thiazol-2-ylcarbamoyl)-3,4-dihydroisoquinolin-2(1H)-yl)-3-(4-((7-(2-((3-(2,6-dioxopiperidin-3-yl)-1-methyl-1H-indazol-6-yl)amino)-2-oxoethyl)-7-azaspiro[3.5]nonan-2-yl)methoxy)-2-methylphenyl)picolinic acid], the “Ymin (24 h)” value (24 h) was “A (Ymin < 50%)”. Further, the DC50 (24 h, read-out: EC50 (24 h)) is less than 100 nM.
For `Cc1c(O[C@H]2CC[C@H](CCCCN3CCN(c4ccc5c(C6CCC(=O)NC6=O)nn(C)c5c4F)CC3)CC2)cccc1-c1ccc(N2CCc3cccc(C(=O)Nc4nc5ccccc5s4)c3C2)nc1C(=O)O` (stereo partly shown) [Compound 293a, 6-(8-(benzo[d]thiazol-2-ylcarbamoyl)-3,4-dihydroisoquinolin-2(1H)-yl)-3-(3-(((1s,4r)-4-(4-(4-(3-(2,6-dioxopiperidin-3-yl)-7-fluoro-1-methyl-1H-indazol-6-yl)piperazin-1-yl)butyl)cyclohexyl)oxy)-2-methylphenyl)picolinic acid], in that order: “A (Ymin < 50%)” and less than 100 nM.
For `Cc1c(O[C@H]2CC[C@H](CCCN3CCC(c4cccc5c(C6CCC(=O)NC6=O)nn(C)c45)CC3)CC2)cccc1-c1ccc(N2CCc3cccc(C(=O)Nc4nc5ccccc5s4)c3C2)nc1C(=O)O` (stereo partly shown) [Compound 270a, 6-(8-(benzo[d]thiazol-2-ylcarbamoyl)-3,4-dihydroisoquinolin-2(1H)-yl)-3-(3-(((1s,4r)-4-(3-(4-(3-(2,6-dioxopiperidin-3-yl)-1-methyl-1H-indazol-7-yl)piperidin-1-yl)propyl)cyclohexyl)oxy)-2-methylphenyl)picolinic acid], in that order: “A (Ymin < 50%)” and less than 100 nM.
With `Cc1c(O[C@H]2CC[C@H](C[C@H](C)CN3CCN(c4cccc5c(C6CCC(=O)NC6=O)nn(C)c45)CC3)CC2)cccc1-c1ccc(N2CCc3cccc(C(=O)Nc4nc5ccccc5s4)c3C2)nc1C(=O)O` (single isomer, unassigned) [Compound 284a], where the note is “24 h”, the “Ymin (24 h)” value is listed as “A (Ymin < 50%)”. For the same compound, the DC50 (24 h, read-out: EC50 (24 h)) is less than 100 nM.
In the case of `Cc1c(O[C@H]2CC[C@H](CCCN3CCN(c4ccc5c(C6CCC(=O)NC6=O)nn(C)c5c4)[C@H](C(F)(F)F)C3)CC2)cccc1-c1ccc(N2CCc3cccc(C(=O)Nc4nc5ccccc5s4)c3C2)nc1C(=O)O` (stereo partly drawn) [Compound 301b, 6-(8-(benzo[d]thiazol-2-ylcarbamoyl)-3,4-dihydroisoquinolin-2(1H)-yl)-3-(3-(((1r,4r)-4-(3-((3S)-4-(3-(2,6-dioxopiperidin-3-yl)-1-methyl-1H-indazol-6-yl)-3-(trifluoromethyl)piperazin-1-yl)propyl)cyclohexyl)oxy)-2-methylphenyl)picolinic acid], the “Ymin (24 h)” value (24 h) is “B (50% ≤ Ymin < 70%)”. Also, where the note is “24 h, read-out: EC50 (24 h)”, the DC50 is less than 100 nM.
`Cc1c(OCCCCCCCN2CCN(c3ccc4c(C5CCC(=O)NC5=O)nn(C)c4c3)CC2)cccc1-c1ccc(N2CCc3cccc(C(=O)Nc4nc5ccccc5s4)c3C2)nc1C(=O)O` (stereo not shown) [Compound 137, 6-(8-(benzo[d]thiazol-2-ylcarbamoyl)-3,4-dihydroisoquinolin-2(1H)-yl)-3-(3-((7-(4-(3-(2,6-dioxopiperidin-3-yl)-1-methyl-1H-indazol-6-yl)piperazin-1-yl)heptyl)oxy)-2-methylphenyl)picolinic acid]: the “Ymin (6 h)” value (6 h) is on record as “B (50% ≤ Ymin < 70%)”. Moreover, where the note is “24 h”, the “Ymin (24 h)” value is “A (Ymin < 50%)”. In addition, the DC50 by setting is: (6 h, read-out: EC50 (6 h)) less than 100 nM; (24 h, read-out: EC50 (24 h)) less than 100 nM.
Regarding `Cc1c(OCCCN2CCN(CCCOc3ccc4c(C5CCC(=O)NC5=O)nn(C)c4c3)CC2)cccc1-c1ccc(N2CCc3cccc(C(=O)Nc4nc5ccccc5s4)c3C2)nc1C(=O)O` (stereo not shown) [Compound 133, 6-(8-(Benzo[d]thiazol-2-ylcarbamoyl)-3,4-dihydroisoquinolin-2(1H)-yl)-3-(3-(3-(4-(3-((3-(2,6-dioxopiperidin-3-yl)-1-methyl-1H-indazol-6-yl)oxy)propyl)piperazin-1-yl)propoxy)-2-methylphenyl)picolinic acid], the “Ymin (6 h)” value (6 h) is “A (Ymin < 50%)”. Moreover, the “Ymin (24 h)” value (24 h) is listed as “A (Ymin < 50%)”. The DC50 runs as follows: (6 h, read-out: EC50 (6 h)) less than 100 nM; (24 h, read-out: EC50 (24 h)) less than 100 nM.
Regarding `Cc1c(OCCCC2CCN(CCN3CCN(c4ccc5c(C6CCC(=O)NC6=O)nn(C)c5c4)CC3)CC2)cccc1-c1ccc(N2CCc3cccc(C(=O)Nc4nc5ccccc5s4)c3C2)nc1C(=O)O` (stereo not shown) [Compound 220, 6-[8-(1,3-benzothiazol-2-ylcarbamoyl)-3,4-dihydro-1H-isoquinolin-2-yl]-3-[3-[3-[1-[2-[4-[3-(2,6-dioxo-3-piperidyl)-1-methyl-indazol-6-yl]piperazin-1-yl]ethyl]-4-piperidyl]propoxy]-2-methyl-phenyl]pyridine-2-carboxylic acid], under “24 h”, the “Ymin (24 h)” value was “A (Ymin < 50%)”. For the same compound, the DC50 (24 h, read-out: EC50 (24 h)) is less than 100 nM.
For `Cc1c(O[C@H]2CC[C@H](CCCN3CCN(c4ccc5c(C6CCC(=O)NC6=O)nn(C)c5c4)C[C@H]3C)CC2)cccc1-c1ccc(N2CCc3cccc(C(=O)Nc4nc5ccccc5s4)c3C2)nc1C(=O)O` (stereo partly drawn) [Compound 273a, 6-(8-(benzo[d]thiazol-2-ylcarbamoyl)-3,4-dihydroisoquinolin-2(1H)-yl)-3-(3-(((1S,4r)-4-(3-((2R)-4-(3-(2,6-dioxopiperidin-3-yl)-1-methyl-1H-indazol-6-yl)-2-methylpiperazin-1-yl)propyl)cyclohexyl)oxy)-2-methylphenyl)picolinic acid], in that order: “A (Ymin < 50%)” and less than 100 nM.
